Reference: ChEMBL document CHEMBL1201862, “PubChem BioAssay data set” (2004)
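Assay format: 96-well plates, 48-hour exposure. The concentration for 50% growth inhibition is given as GI50.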 Active and inactive are the calls of the source. Rule as the data show it: active = GI50 up to about 1.1 µM and inactive = higher.

Legend:
Test in all cases: inhibition of tumour cell growth, NCI panel, 48 h
MDA-MB-231 = tested on: MDA-MB-231
NCI-H226 = tested on: NCI-H226
TK-10 = tested on: TK-10
ACHN = tested on: ACHN
HT-29 = tested on: HT-29
BT-549 = tested on: BT-549
HL-60 = tested on: HL-60
SF-295 = tested on: SF-295
A498 = tested on: A498
KM12 = tested on: KM12
NCI/ADR-RES = tested on: NCI/ADR-RES
UACC-257 = tested on: UACC-257
PC-3 = tested on: PC-3
OVCAR-5 = tested on: OVCAR-5
CAKI-1 = tested on: CAKI-1
OVCAR-8 = tested on: OVCAR-8
SF-268 = tested on: SF-268
HCC 2998 = tested on: HCC 2998
SF-539 = tested on: SF-539

Measured: GI50

CC(C)(C)OC(=O)CCC1NC(=O)[C@@H]2Cc3c([nH]c4ccccc34)C(C3CCCCC3)N2C1=O (stereo partly specified)
inactive: MDA-MB-231 22 µM | NCI-H226 36.2 µM | TK-10 34.7 µM | ACHN 33.3 µM | HT-29 18.6 µM | BT-549 48.8 µM | HL-60 16.6 µM | SF-295 23.1 µM | A498 60.5 µM | KM12 24.9 µM | NCI/ADR-RES 48.8 µM | UACC-257 29.4 µM | PC-3 18.8 µM | OVCAR-5 53.2 µM | CAKI-1 37.1 µM | OVCAR-8 50.4 µM | SF-268 31.4 µM

Fc1cc(-c2cc(-c3ccc4c(c3)OCO4)n[nH]2)c(Cl)cc1Cl
inactive: MDA-MB-231 1.75 µM | NCI-H226 1.99 µM | TK-10 3 µM | HCC 2998 4.94 µM | ACHN 1.95 µM | HT-29 4 µM | BT-549 6.59 µM | HL-60 > 100 µM | SF-295 3.05 µM | KM12 3.01 µM | NCI/ADR-RES 3.33 µM | UACC-257 9.82 µM | PC-3 3.62 µM | OVCAR-5 3.28 µM | CAKI-1 3.18 µM | OVCAR-8 1.85 µM | SF-539 2.31 µM | SF-268 3.24 µM

COC(=O)C1CCOC(C)N1C(=O)OC(C)(C)C (stereo unspecified)
inactive: MDA-MB-231 > 100 µM | NCI-H226 > 100 µM | TK-10 > 100 µM | HCC 2998 > 100 µM | ACHN > 100 µM | HT-29 > 100 µM | BT-549 > 100 µM | HL-60 > 100 µM | SF-295 > 100 µM | KM12 > 100 µM | NCI/ADR-RES > 100 µM | UACC-257 > 100 µM | PC-3 > 100 µM | OVCAR-5 > 100 µM | CAKI-1 > 100 µM | OVCAR-8 > 100 µM | SF-539 > 100 µM | SF-268 > 100 µM

CNc1ncccc1Nc1cc(=O)n2c3cccnc3n(C)c2c1
inactive: MDA-MB-231 13.7 µM | NCI-H226 > 100 µM | TK-10 53.2 µM | HCC 2998 > 100 µM | ACHN > 100 µM | HT-29 58.3 µM | BT-549 > 100 µM | SF-295 93.5 µM | A498 89.7 µM | KM12 > 100 µM | NCI/ADR-RES > 100 µM | UACC-257 > 100 µM | PC-3 9.51 µM | OVCAR-5 > 100 µM | CAKI-1 94.6 µM | OVCAR-8 > 100 µM | SF-539 73.5 µM | SF-268 51.8 µM

Nc1ccc2nc3n(c(=O)c2c1)CCCCC3
inactive: MDA-MB-231 > 100 µM | NCI-H226 > 100 µM | TK-10 > 100 µM | ACHN > 100 µM | HT-29 > 100 µM | BT-549 89.9 µM | HL-60 > 100 µM | SF-295 > 100 µM | A498 > 100 µM | KM12 > 100 µM | NCI/ADR-RES > 100 µM | UACC-257 > 100 µM | PC-3 > 100 µM | OVCAR-5 > 100 µM | CAKI-1 > 100 µM | OVCAR-8 > 100 µM | SF-539 > 100 µM | SF-268 > 100 µM

C[N+]1=C2[B-](C(C)(C)C)=[N+](C(C)(C)C)[B-]2(C(C)(C)C)[N+](C)=C2[B-](C(C)(C)C)=[N+](C(C)(C)C)[B-]21C(C)(C)C (stereo unspecified)
inactive: MDA-MB-231 > 100 µM | NCI-H226 > 100 µM | TK-10 > 100 µM | HCC 2998 > 100 µM | ACHN > 100 µM | HT-29 > 100 µM | BT-549 > 100 µM | HL-60 > 100 µM | SF-295 61.9 µM | A498 > 100 µM | KM12 > 100 µM | NCI/ADR-RES > 100 µM | UACC-257 > 100 µM | PC-3 > 100 µM | OVCAR-5 > 100 µM | CAKI-1 > 100 µM | OVCAR-8 > 100 µM | SF-268 > 100 µM

Cc1ccsc1/C=N/Nc1ncccn1
inactive: MDA-MB-231 > 100 µM | NCI-H226 > 100 µM | TK-10 > 100 µM | HCC 2998 > 100 µM | ACHN > 100 µM | HT-29 > 100 µM | BT-549 > 100 µM | HL-60 > 100 µM | SF-295 > 100 µM | A498 > 100 µM | KM12 32.4 µM | NCI/ADR-RES > 100 µM | UACC-257 > 100 µM | PC-3 > 100 µM | OVCAR-5 > 100 µM | CAKI-1 > 100 µM | OVCAR-8 > 100 µM | SF-268 > 100 µM

BrCC[P+](c1ccccc1)(c1ccccc1)c1ccccc1
inactive: MDA-MB-231 18.3 µM | TK-10 16.9 µM | HCC 2998 9.42 µM | ACHN 3.18 µM | HT-29 13.3 µM | BT-549 14.9 µM | HL-60 2.25 µM | SF-295 30.8 µM | A498 11.4 µM | KM12 4.8 µM | NCI/ADR-RES 6.31 µM | UACC-257 3.7 µM | PC-3 5.21 µM | OVCAR-5 10.8 µM | CAKI-1 4.37 µM | OVCAR-8 3.1 µM | SF-539 15 µM | SF-268 2.13 µM

Clc1ccc(C2=NCON=C2c2ccc(Cl)cc2)cc1
inactive: MDA-MB-231 18.1 µM | NCI-H226 14.5 µM | TK-10 23.9 µM | HCC 2998 15.2 µM | ACHN 19 µM | HT-29 13.6 µM | BT-549 19.5 µM | HL-60 14.5 µM | SF-295 16.6 µM | KM12 15.5 µM | NCI/ADR-RES 21.5 µM | UACC-257 25.1 µM | PC-3 18.2 µM | OVCAR-5 20.1 µM | CAKI-1 21.6 µM | OVCAR-8 25.6 µM | SF-539 15.3 µM | SF-268 19.7 µM

CC(=O)Nc1nc(C)c(S(=O)(=O)NC(=O)NC2NC(=O)NC2=O)s1 (stereo unspecified)
inactive: MDA-MB-231 > 100 µM | TK-10 > 100 µM | HCC 2998 > 100 µM | ACHN > 100 µM | HT-29 > 100 µM | BT-549 > 100 µM | HL-60 > 100 µM | SF-295 > 100 µM | A498 > 100 µM | KM12 > 100 µM | NCI/ADR-RES > 100 µM | UACC-257 > 100 µM | PC-3 > 100 µM | OVCAR-5 > 100 µM | CAKI-1 > 100 µM | OVCAR-8 > 100 µM | SF-539 > 100 µM | SF-268 > 100 µM

Cc1nn(C(=O)c2ccc(Cl)cc2)c2c1C(c1ccccc1[N+](=O)[O-])SC(=N)N2 (stereo unspecified)
inactive: MDA-MB-231 > 10 µM | NCI-H226 > 10 µM | TK-10 > 10 µM | HCC 2998 > 10 µM | ACHN > 10 µM | HT-29 > 10 µM | BT-549 > 10 µM | HL-60 > 10 µM | SF-295 > 10 µM | KM12 > 10 µM | NCI/ADR-RES > 10 µM | UACC-257 > 10 µM | PC-3 > 10 µM | OVCAR-5 > 10 µM | CAKI-1 > 10 µM | OVCAR-8 > 10 µM | SF-539 > 10 µM | SF-268 > 10 µM

COc1ccc2c(c1)C(N)=C(Cc1ccncc1)C2=O
inactive: MDA-MB-231 > 100 µM | TK-10 > 100 µM | ACHN > 100 µM | HT-29 > 100 µM | BT-549 > 100 µM | HL-60 49.4 µM | SF-295 > 100 µM | A498 > 100 µM | KM12 > 100 µM | NCI/ADR-RES > 100 µM | UACC-257 > 100 µM | PC-3 91.8 µM | CAKI-1 > 100 µM | OVCAR-8 > 100 µM | SF-539 > 100 µM | SF-268 > 100 µM

COC1=CC(=O)C2=C(C1=O)[C@H]1CC[C@]3(C)[C@@H](OC(C)=O)CC[C@H]3[C@@H]1CC2
inactive: MDA-MB-231 17 µM | NCI-H226 75.2 µM | TK-10 > 100 µM | ACHN 35.1 µM | HT-29 20.8 µM | BT-549 > 100 µM | HL-60 16.4 µM | SF-295 92.3 µM | A498 > 100 µM | KM12 60.3 µM | NCI/ADR-RES 32.7 µM | UACC-257 27.1 µM | PC-3 39.9 µM | OVCAR-5 37.8 µM | CAKI-1 49 µM | OVCAR-8 23.9 µM | SF-539 75.3 µM | SF-268 42.1 µM

CCCCCCCCC/C=C1\CC(CO)(COC(=O)C2CCCCC2)OC1=O (stereo unspecified)
inactive: MDA-MB-231 19.7 µM | NCI-H226 23.3 µM | TK-10 21.3 µM | HCC 2998 23.7 µM | ACHN 20 µM | HT-29 19.7 µM | BT-549 18.4 µM | SF-295 15.9 µM | A498 22.1 µM | KM12 20.4 µM | NCI/ADR-RES 17 µM | UACC-257 27.4 µM | PC-3 17 µM | OVCAR-5 17.8 µM | CAKI-1 22.9 µM | OVCAR-8 15.8 µM | SF-268 20.4 µM

OCCNc1ncnc2[nH]cnc12
inactive: MDA-MB-231 > 100 µM | NCI-H226 > 100 µM | TK-10 > 100 µM | HCC 2998 > 100 µM | ACHN > 100 µM | HT-29 > 100 µM | BT-549 > 100 µM | HL-60 > 100 µM | SF-295 > 100 µM | A498 > 100 µM | KM12 > 100 µM | NCI/ADR-RES > 100 µM | UACC-257 > 100 µM | PC-3 > 100 µM | OVCAR-5 > 100 µM | CAKI-1 > 100 µM | OVCAR-8 > 100 µM | SF-268 > 100 µM
